Measurements reported in patent US20250222051A1, “MU[…] ADJUVANT TREATMENT OF TUMOR, AND PREPARATION METHOD AND APPLICATION THEREOF” (Changde Jizhi Biological Technology Co., Ltd, priority 2024, published 2025).

How the values were obtained:
[1] = test system: Human lung cancer cells (A549); conditions: A549 transplanted tumor, oxaliplatin 15 mg/kg tail vein once, products 0.45 g/kg intragastric
Text: (§1) Experimental animals: BLAB/c female nude mice, 6-7 weeks old, weighing 18-20 g.
(§2) Subcutaneous tumor cell inoculation in mice: Human lung cancer cells (A549), human ovarian cancer cells (Skov-3) and human cervical cancer epithelial cells (Hela) in logarithmic growth phase are taken and made into cell suspension (1×10^7 cells/mL) with phosphate buffered saline (PBS), each mouse is inoculated with 2×10^6 cells, the inoculation volume is 200 microliters (μL), and then inoculated subcutaneously in the armpit of BLAB/c nude mice. The selected tumor tissues are put into a glass homogenizer, ground with sterile physiological saline, filtered into a single cell suspension through a sieve, and the number of living cells is counted by trypan blue staining. Each nude mouse is inoculated with 200 μL cell suspension (including 1×10^6 cells) under its armpit.
(§3) Experimental grouping and methods: nude mice with the same tumor size are selected, and the nude mice are weighed and randomly divided into groups. […] The drug concentration and specific grouping are as follows. The model control group is intragastrically administered with 200 μL normal saline once a day, the mice are administered once on the second day after tumor inoculation. […] After 24 hours of the last administration, the tumor mass is taken out, the tumor weight is measured and the tumor inhibition rate is calculated.

[2] = test system: human ovarian cancer cells (Skov-3); conditions: Skov-3 transplanted tumor, oxaliplatin 15 mg/kg tail vein once, products 0.45 g/kg intragastric
Text: as §1, §2, §3

[3] = test system: human cervical cancer epithelial cells (Hela); conditions: Hela transplanted tumor, oxaliplatin 15 mg/kg tail vein once, products 0.45 g/kg intragastric
Text: as §1, §2, §3

[4] = test system: mouse H22 hepatoma cells; conditions: oxaliplatin 15 mg/kg tail vein once, products 0.45 g/kg intragastric
Experimental: The anti-tumor effect of the product of the disclosure on a Hepatoma-22 (H22) mouse model of live cancer is studied.
Positive control drug: oxaliplatin.
Animals and preparation of tumors are as follows. BALB/c male mice are adopted, weighing 18-22 g. The mice are fed in specific-pathogen free (SPF) grade animal house, with temperature of 20-25° C., relative humidity of 40%-70%, 6 mice per cage, illumination time of 12 h, regular and quantitative addition of feed, free drinking water, and daily replacement of padding.
Transplanted tumor cells: 10^6 mouse H22 hepatoma cells are injected into abdominal cavity for passage, and the hepatoma cells are collected after 7-10 days for subcutaneous inoculation.
Experimental methods of tumor passage preservation for in vivo tumor inhibition effect evaluation: H22 hepatoma mice are inoculated intraperitoneally and the ascites is taken for passage and preservation.
Tumor inoculation: H22 hepatocellular carcinoma bearing mice on the 10th day of ascites passage are taken, the mice are killed by cervical vertebra removal, the abdominal skin is disinfected, milky white ascites is absorbed with a sterile syringe, and the concentration of tumor cells is adjusted to 1×10^6 cells per milliliter (mL) with normal saline for injection. The right armpit skin of BALB/c mice is disinfected with alcohol cotton balls, 0.2 mL of the tumor cell suspension is inoculated subcutaneously, and the mice are raised routinely.
After 24 hours of the last administration, the mice are sacrificed by cervical dislocation, and the tumor tissues are stripped and weighed. The curative effect is evaluated by tumor weight inhibition rate (%), and analysis of variance (ANOVA) test is used for statistical comparison between groups.

For `O=C1[O][Pt]2([NH][C@@H]3CCCC[C@H]3[NH]2)[O]C1=O` [Oxaliplatin, oxaliplatin], the “Tumor weight” value ([1]; X ± SD) was 0.98 ± 0.32 g, the “Inhibition rate (%)” value [1] was 58.25% and the “Tumor weight” value ([2]; X ± SD) was 1.78 ± 0.33 g. The “Inhibition rate (%)” value [2] was 45.25%, the “Tumor weight” value ([3]; X ± SD) was 1.78 ± 0.33 g and the “Inhibition rate (%)” value [3] was 45.25%. The “Tumor weight” value ([4]; H22 subcutaneous tumor, 24 hours after last administration) was 1.14 ± 0.29 g, the “Inhibition rate (%)” value ([4]; H22 tumor weight inhibition rate) was 50.22% and the “Weight Start” value ([4]; body weight of H22 tumor-bearing mice at start) was 20.09 ± 1.08.
